Laboratory results: US8354416B2 (Glaxo Group Limited, priority 2005, dated 2013)
“Also recorded” adds a separate entry of the source.

test system: TNF-stimulated IL8 production by human neutrophils; assay: TNF-stimulated IL-8 production from human neutrophils; conditions: read-out: IC50, TNF-stimulated IL-8 production from human neutrophils, broad range of data upon multiple runs
Experimental: The effect of test compounds on TNF-stimulated IL8 production by human neutrophils is measured as follows. Neutrophils are prepared from blood obtained from consenting donors, using standard methods. Blood is collected in heparinized syringes and layered over histopaque (30 ml/20 ml). Following centrifugation, the red cell pellet is resuspended in PBS and purified over a dextran gradient. Red blood cells are lysed with water for 40 sec, remaining granulocytes collected by centrifugation and resuspended at 1.5×10^6 cells/ml. Cells are added (0.5-1 ml) to 48 well plates already containing compound at 1000× final concentration in neat DMSO or 10% DMSO in RPMI1640 with 10% FBS. TNF (final concentration 100 ng/ml) is used as the stimulus. Cells incubated for approximately 20 hrs at 37° C., 5% CO2. Levels of IL-8 in the cell free supernatant are determined by sandwich ELISA, and inhibition relative to a control with DMPO but no compound is calculated.

Structure (SMILES)	IC50
CCN(CC)CCCNc1nc(-c2cc(C(=O)N(C)C)ccc2C)c2ccc(=O)n(-c3c(F)cccc3F)c2n1 [Example 120, 3-[2-{[3-(diethylamino)propyl]amino}-8-(2,6-difluorophenyl)-7-oxo-7,8-dihydropyrido[2,3-d]pyrimidin-4-yl]-N,N,4-trimethylbenzamide]	> 1 nM

test system: influx of neutrophils to the lung in LPS-challenged rats; assay: Rat LPS neutrophilia model; type: in vivo; conditions: intratracheal, LPS aerosol 100 ug/ml, in at least one of the range of conditions tested, significance p<0.05
Outline: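 Compound given intratracheally (200 ul suspension, or dry powder blend) to isoflurane-anesthetized rats 15 min–24 hours before 15 min exposure to LPS aerosol (100 ug/ml). Four hours later, bronchoalveolar lavage cells were counted differentially. Data are % inhibition of neutrophils versus no-compound controls at a given concentration and pretreat time.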

Structure (SMILES)	inhibition of neutrophilia (neutrophil levels in airway lavage relative to no compound controls)
CCN(CC)CCCNc1nc(-c2cc(C(=O)N(C)C)ccc2C)c2ccc(=O)n(-c3c(F)cccc3F)c2n1 [Example 120, 3-[2-{[3-(diethylamino)propyl]amino}-8-(2,6-difluorophenyl)-7-oxo-7,8-dihydropyrido[2,3-d]pyrimidin-4-yl]-N,N,4-trimethylbenzamide]	statistically nonsignificant inhibition of neutrophilia; also recorded: inactive
CCC(C)NC(=O)c1ccc(C)c(-c2nc(NCCCN(CC)CC)nc3c2ccc(=O)n3-c2c(F)cccc2F)c1 (stereo not shown) [Example 162, 3-[2-{[3-(diethylamino)propyl]amino}-8-(2,6-difluorophenyl)-7-oxo-7,8-dihydropyrido[2,3-d]pyrimidin-4-yl]-4-methyl-N-(1-methylpropyl)benzamide]	statistically nonsignificant inhibition of neutrophilia
CNCCNc1nc(-c2cc(C(=O)Nc3nccs3)ccc2C)c2ccc(=O)n(-c3c(F)cccc3F)c2n1 [Example 61, 3-(8-(2,6-difluorophenyl)-2-{[2-(methylamino)ethyl]amino}-7-oxo-7,8-dihydropyrido[2,3-d]pyrimidin-4-yl)-4-methyl-N-1,3-thiazol-2-ylbenzamide]	statistically significant inhibition of neutrophilia
CNCCNc1nc(-c2cc(C(=O)NC3CCCC3)ccc2C)c2ccc(=O)n(-c3c(F)cccc3F)c2n1 [Example 58, N-cyclopentyl-3-(8-(2,6-difluorophenyl)-2-{[2-(methylamino)ethyl]amino}-7-oxo-7,8-dihydropyrido[2,3-d]pyrimidin-4-yl)-4-methylbenzamide]	statistically significant inhibition of neutrophilia
Cc1ccc(C(=O)NCC(F)(F)F)cc1-c1nc(N2CCC(N3CCC(C)CC3)CC2)nc2c1ccc(=O)n2-c1c(F)cccc1F [Example 172, 3-[8-(2,6-difluorophenyl)-2-(4-methyl-1,4′-bipiperidin-1′-yl)-7-oxo-7,8-dihydropyrido[2,3-d]pyrimidin-4-yl]-4-methyl-N-(2,2,2-trifluoroethyl)benzamide]	inactive
Cc1ccc(NC(=O)c2ccsc2)cc1-c1nc(N2CCC(N)CC2)nc2c1ccc(=O)n2-c1c(F)cccc1F [Example 32, N-{3-[2-(4-amino-1-piperidinyl)-8-(2,6-difluorophenyl)-7-oxo-7,8-dihydropyrido[2,3-d]pyrimidin-4-yl]-4-methylphenyl}-3-thiophenecarboxamide]	statistically nonsignificant inhibition of neutrophilia
Cc1ccc(C(=O)Nc2ccc(F)cc2)cc1-c1nc(NC2CC(C)(C)NC(C)(C)C2)nc2c1ccc(=O)n2-c1c(F)cccc1F [Example 66, 3-{8-(2,6-difluorophenyl)-7-oxo-2-[(2,2,6,6-tetramethyl-4-piperidinyl)amino]-7,8-dihydropyrido[2,3-d]pyrimidin-4-yl}-N-(4-fluorophenyl)-4-methylbenzamide]	statistically significant inhibition of neutrophilia
Cc1ccc(C(=O)NCC2CC2)cc1-c1nc(N2CCC(N)CC2)nc2c1ccc(=O)n2-c1c(F)cccc1F [Example 27, 3-[2-(4-amino-1-piperidinyl)-8-(2,6-difluorophenyl)-7-oxo-7,8-dihydropyrido[2,3-d]pyrimidin-4-yl]-N-(cyclopropylmethyl)-4-methylbenzamide]	statistically significant inhibition of neutrophilia
Cc1ccc(C(=O)Nc2nccs2)cc1-c1nc(NCCNC(C)C)nc2c1ccc(=O)n2-c1c(F)cccc1F [Example 103, 3-[8-(2,6-difluorophenyl)-2-({2-[(1-methylethyl)amino]ethyl}amino)-7-oxo-7,8-dihydropyrido[2,3-d]pyrimidin-4-yl]-4-methyl-N-1,3-thiazol-2-ylbenzamide]	statistically significant inhibition of neutrophilia
CCCNC(=O)c1ccc(C)c(-c2nc(NCCNC)nc3c2ccc(=O)n3-c2c(F)cccc2F)c1 [56(d), 3-(8-(2,6-difluorophenyl)-2-{[2-(methylamino)ethyl]amino}-7-oxo-7,8-dihydropyrido[2,3-d]pyrimidin-4-yl)-4-methyl-N-propylbenzamide]	statistically significant inhibition of neutrophilia
CNCCNc1nc(-c2cc(C(=O)Nc3ccc(F)cc3)ccc2C)c2ccc(=O)n(-c3c(F)cccc3F)c2n1 [Example 60, 3-(8-(2,6-difluorophenyl)-2-{[2-(methylamino)ethyl]amino}-7-oxo-7,8-dihydropyrido[2,3-d]pyrimidin-4-yl)-N-(4-fluorophenyl)-4-methylbenzamide]	statistically significant inhibition of neutrophilia

target: T1, Recombinant human p38α (Homo sapiens, UniProt Q16539); assay: Time-resolved fluorescence resonance energy transfer (TR-FRET) kinase assay (standard or low volume); type: biochemical; conditions: no IC50 at a concentration of less than 16 uM
T1 construct: His; made in house
Experimental: Time-Resolved Fluorescence Resonance Energy Transfer Kinase Standard Assay
(§1) Recombinant human p38α was expressed as a His-tagged protein. To activate this protein, 3 μM unactivated p38α was incubated in 200 mM Hepes pH 7.4, 625 mM NaCl, 1 mM DTT with 27 nM active MKK6 (Upstate), 1 mM ATP and 10 mM MgCl2 The activity of the MKK6-activated p38α was assessed using a time-resolved fluorescence resonance energy transfer (TR-FRET) assay.
Biotinylated-GST-ATF2 (residues 19-96, 400 nM final), ATP ([…]) and MgCl2 (5 mM final) in assay buffer (40 mM HEPES pH 7.4, 1 mM DTT) were added to wells containing 1 ul of various concentrations of compound or DMSO vehicle (3% final) in NUNC 384 well black plate. […] The degree of phosphorylation of GST-ATF2 was measured using a Packard Discovery plate reader (Perkin-Elmer Life Sciences, Pangbourne, UK) as a ratio of specific 665 nm energy transfer signal to reference europium 620 nm signal.
Time-Resolved Fluorescence Resonance Energy Transfer Kinase Low Volume Assay
as §1, with “pH7.4,” for “pH 7.4,”, “assay. […]” for “assay.”

T1 sequence (Q16539 whole entry): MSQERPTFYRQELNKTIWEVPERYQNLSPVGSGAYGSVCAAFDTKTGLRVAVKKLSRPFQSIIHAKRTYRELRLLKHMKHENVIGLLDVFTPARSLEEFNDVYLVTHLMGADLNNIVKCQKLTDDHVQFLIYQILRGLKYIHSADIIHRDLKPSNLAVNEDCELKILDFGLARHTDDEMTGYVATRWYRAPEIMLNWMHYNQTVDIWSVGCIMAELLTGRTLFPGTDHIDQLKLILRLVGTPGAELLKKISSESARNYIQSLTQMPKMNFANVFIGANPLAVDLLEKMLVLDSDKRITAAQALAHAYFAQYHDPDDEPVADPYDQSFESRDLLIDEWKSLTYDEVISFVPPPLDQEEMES

Structure (SMILES)	pIC50, TR-FRET kinase assay
CCN(CC)CCCNc1nc(-c2ccc(C(=O)O)cc2)c2ccc(=O)n(-c3c(F)cccc3F)c2n1 [Example 188(a), 4-[2-{[3-(diethylamino)propyl]amino}-8-(2,6-difluorophenyl)-7-oxo-7,8-dihydropyrido[2,3-d]pyrimidin-4-yl]benzoic acid]	less than 4.8
